Assay results as given in PMC8147781, “Discovery of Pyrrolidine-2,3-diones as Novel Inhibitors of P. aeruginosa PBP3” (Antibiotics, 2021).
≈ marks a conversion by molar mass, not a printed value.

How the values were obtained:
[1] = biological target: T1, PBP3 of P. aeruginosa (PaPBP3) (Pseudomonas aeruginosa, UniProt G3XD46); test: S2dfluo fluorescence transpeptidase assay; format: biochemical; conditions: for IC50: 300 nM PaPBP3, 30 min preincubation, 37 °C, read-out: IC50 Determination with PaPBP3, S2dfluo Assay; for inhibition at 100 µM: read-out: PBP3 Inhibition at 100 µM (%)
T1 construct: P. aeruginosa PBP3 (amino acids 40 to 563); His-tag; made in house; host or cells: E. coli BL21 (DE3) Rosetta, plasmid pET41_PBP-3
T1 sequence (G3XD46 40-563): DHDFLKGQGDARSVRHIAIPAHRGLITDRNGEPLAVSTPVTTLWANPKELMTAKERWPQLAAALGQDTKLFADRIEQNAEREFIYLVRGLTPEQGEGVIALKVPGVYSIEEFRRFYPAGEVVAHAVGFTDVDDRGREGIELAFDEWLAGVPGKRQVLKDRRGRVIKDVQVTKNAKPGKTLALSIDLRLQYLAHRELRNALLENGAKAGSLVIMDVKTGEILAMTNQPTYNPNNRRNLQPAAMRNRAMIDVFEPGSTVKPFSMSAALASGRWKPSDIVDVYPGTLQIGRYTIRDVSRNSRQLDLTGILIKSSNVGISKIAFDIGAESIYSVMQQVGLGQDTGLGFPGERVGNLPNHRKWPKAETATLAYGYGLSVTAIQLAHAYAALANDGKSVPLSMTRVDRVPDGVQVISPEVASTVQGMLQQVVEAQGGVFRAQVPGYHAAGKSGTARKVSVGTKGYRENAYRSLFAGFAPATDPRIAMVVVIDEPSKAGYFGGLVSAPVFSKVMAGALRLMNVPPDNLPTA
Experimental: The assays were carried out in the presence of 5% DMSO and 0.01% Triton X100 to avoid the formation of colloidal structures and adsorption of protein and/or compounds to surfaces. The Z’-factor determined for the assay was 0.73 ± 0.28, indicating the suitability and robustness of the assay for high throughput screening (HTS) (Figure 1B,C).
The activity of soluble ^PaPBP3 (300 nM) was measured in the presence of 0.8 mM S2d, 1 mM D-alanine and 0.5 mM mBBr for 25 min by monitoring the increase in the fluorescence intensity of mBBr at Ex/Em: 394/490 nm using an Infinite M1000 microplate reader (Tecan, Männedorf, Switzerland). To test the effect of inhibitors, 100 µM or 0.8 to 100 µM of compounds diluted in 96% DMSO were incubated for 30 min and 450 rpm with 300 nM soluble PBP3. The incubation period was set to improve the binding of non-covalent inhibitors and 0.01% Triton X100 (Sigma-Aldrich, Taufkirchen, Germany) was added to prevent aggregation of compounds. The enzyme reaction was started by adding a substrate mix of 0.8 mM S2d and […]. The enzyme, compound and substrate mix were mixed 1:1, pipetted with a Liquidator 96 (Melter Toledo, Gießen, Germany) and the fluorescence intensity was directly monitored with an Infinite M1000 microplate reader (Tecan) at Ex/Em: 394/490 nm. The assay was performed in black, flat-bottom 96-well microplates (Greiner Bio-One, Kremsmünster, Austria) at 37 °C in Sorensen Phosphate Buffer (57 mM Na2HPO4 and 10 mM KH2PO4, pH 7.5 + 0.01% Triton X-100). The velocity of the PBP3 reaction was calculated in the presence of each concentration of compound and the velocity values were used to estimate IC50 by sigmoidal nonlinear regression, using Prism v.9 software (San Diego, CA, USA) and the velocity of the reaction at each concentration.

[2] = biological target: T1, PBP3 of P. aeruginosa (PaPBP3); test: FP-Bocillin FL competition assay; format: binding; conditions: 30 min preincubation before Bocillin FL, 37 °C; for IC50: read-out: IC50 Determination with PaPBP3, FP-Bocillin FL Assay
Experimental: Bocillin FL is a fluorescent penicillin V derivate used as a competitor for PBP inhibitors.
Fluorescence polarisation (FP) experiments were carried out as described before. To determine the binding of Bocillin FL to PBP, 200 nM of ^PaPBP3 was incubated for 30 min with 100 nM of Bocillin FL (Thermo Fisher Scientific, Waltham, MA, USA). The fluorescence polarisation signal of free Bocillin FL was monitored in a Pherastar microplate reader (BMG Labtech, Ortenberg, Germany) in the polarisation mode with Ex/Em: 485/520 nm excitation and emission filters. Millipolarisation (mP) units were calculated using the MARS data analysis software v30.40.R2 (BMG Labtech, Ortenberg, Germany). All the experiments were done in Sorensen buffer at 37 °C using flat-bottom, black 96-well plates. […] Bocillin FL was diluted in Sorensen buffer and added to the reaction and directly measured for 30 min at 37 °C. The FP was continuously measured in the presence and absence of compound and enzyme. […] The estimated IC50 values were established by sigmoidal nonlinear regression, using Prims v.8 software.

[3] = test system: T-lymphoblast CCRF-CEM cell line; test: Cytotoxicity assay (PrestoBlue), CCRF-CEM; conditions: CC50, 72 h
Experimental: (§1) We finally tested the cytotoxicity of the compounds against four eukaryotic cell lines (Table 2 and Table S5), NRK-52E, an epithelial kidney cell line of Rattus norvegicus; Hep G2, an human epithelial liver cell line; and two suspension cell lines: CCRF-CEM, a T lymphoblast; and H9, a cutaneous T lymphocyte cell line.
(§2) Cell lines stored at −120 °C were thawed to 37 °C and resuspended in 10 mL of medium pre-warmed to 37 °C. Cells were pelleted at 300× g for 10 min, and then resuspended in fresh medium, seeded in a T-75 culture flask, and placed in a CO2 incubator (37 °C with 5% CO2 tension). Once the cells reached approximately 70–80% confluency, they were then passaged regularly. The adherent cell lines NRK52E, HepG2 and Huh 7 were washed once with 10 mL DPBS and detached with Trypsin-EDTA for 5 to 7 min and resuspended in 15 mL of the appropriate medium. The suspension cell line CCRF-CEM were diluted and resuspended in fresh RPMI 1640 PAN medium. To calculate the cell density, the cell resuspensions were diluted 1:6 with DPBS. Equal volumes of cell suspension and Trypan Blue were mixed and gently loaded into a haemocytometer (INCYTO, 31056 Republic of Korea). In each experiment, cell concentrations were adjusted to reach a concentration of 2.5 × 10^3 cell/well for NRK52E, 5 × 10^3 cell/well for HepG2, 6.2 × 10^4 cell/well for CCRF-CEM and 3 × 10^3 for H9. The cells were incubated with decreasing concentration of compounds (1 µL in 96% DMSO) for 72 h at 37 °C with 5% CO2 tension. Cycloheximide, a cytotoxic compound that interferes with the translocation step in eukaryotic protein synthesis was used as a control for the experiments. The assay was carried out in flat-bottom, transparent 96-well plates. Cell viability was determined using the PrestoBlue reagent (Thermo Fisher Scientific, Waltham, MA, USA) according to the manufacture’s protocol. First, 10× PrestoBlue was added to each well to obtain a 1× solution, and incubated at 37 °C for 45 min. Then, fluorescence was measured at Ex/Em: 550/595 nm using a ClarioStar microplate reader (BMG Labtech). Cytotoxicity was determined as the percentage of the difference in absorbance of the untreated sample to the treated sample. CC50 was calculated using the values obtained in each concentration using the sigmoidal dose-response by Prism v.8. The media used in each cell line is detailed in Table S6.

[4] = test system: Hep G2, epithelial liver cell line; test: Cytotoxicity assay (PrestoBlue), HepG2; conditions: CC50, 72 h
Experimental: as §1, §2

[5] = test system: NRK-52E, epithelial kidney cell line; test: Cytotoxicity assay (PrestoBlue), NRK52E; conditions: CC50, 72 h
Experimental: as §1, §2

[6] = test system: H9, cutaneous T lymphocyte cell line; test: Cytotoxicity assay (PrestoBlue), H9; conditions: CC50, 72 h
Experimental: as §1, §2

E. coli Neumann = test: MIC broth microdilution, E. coli; format: cell-based; conditions: Escherichia coli; Table S3; read-out: MIC (µM) E. coli Neumann
Experimental: (§3) MIC determination was performed via standard broth microdilution according to the Clinical & Laboratory Standards institute guidelines. Overnight colonies grown on BD-Columbia agar with 5% Sheep Blood (Becton Dickinson, Franklin Lakes, NJ, USA), were diluted in Mueller Hinton Broth 2 cation adjusted (MH+) medium (Thermo Fisher Scientific) to a concentration of 5 × 10^5 CFU/mL. Serial dilutions (1:2) of test compounds were incubated at 37 °C with 5 × 10^4 bacteria in a final volume of 100 μL. Sterile and growth controls in the presence of 1% DMSO and PMBN if the case, and the positive controls, aztreonam (AZT) and tigecycline (TIG) were included in the experiments (Table S4). The MICs were determined visually after 18 h at 37 °C and confirmed by the addition of 10% PrestoBlue (ThermoFisher Scientific) reagent according to the manufacture’s protocol. The fluorescence signal of PrestoBlue reagent was measured at Ex/Em: 550/595 nm after 30 min incubation at 37 °C using at a ClarioStar microplate reader (BMG Labtech). PrestoBlue reduction occurs in the presence of living cells and consequently turns red in colour and is highly fluorescent.

[7] = test system: K. pneumoniae clinical isolate; test: MIC broth microdilution, K. pneumoniae; format: cell-based; conditions: Klebsiella pneumoniae; Table S3
Experimental: as §3

A. baumannii ATCC15308 = test: MIC broth microdilution, A. baumannii; format: cell-based; conditions: 10 µg/mL PMBN
Experimental: as §3

S. pneumoniae = test: MIC broth microdilution, S. pneumoniae; format: cell-based; conditions: Streptococcus pneumoniae; Table S3; read-out: MIC (µM) S. pneumoniae
Experimental: as §3

B. subtilis 168 = test: MIC broth microdilution, B. subtilis; format: cell-based; conditions: Bacillus subtilis, 168; Table S3
Experimental: as §3

S. aureus 133 = test: MIC broth microdilution, S. aureus; format: cell-based; conditions: Staphylococcus aureus, 133; Table S3
Experimental: as §3

Row | SMILES | IC50 [1] | IC50 [2] | inhibition at 100 µM [1] | other results
1 | COc1ccc(CN2C(=O)/C(=C(/C)O)C(=O)[C@@H]2COC(C)(C)C)c(OC)c1 [Compound 8] | 66 ± 16 µM | 93 ± 18 µM | – | –
2 | CCCCCCOc1cccc(N2C(=O)C(O)=C(C(=O)c3ccccc3)C2c2ccccc2F)c1 (stereo not shown) [Compound 3] | 19 ± 1 µM | > 100 µM | 100 ± 0.8% | IC50 Determination with PaPBP3, FP-Bocillin FL Assay [2]: failed to inhibit Bocillin FL binding
3 | C[C@@H]1C[C@@H]([C@H](O)CC2CC(=O)NC(=O)C2)C(=O)[C@@H](C)C1 [Cycloheximide, reference compound] | – | – | – | Cytotoxicity CCRF-CEM [3]: 0.66 ± 0.5 µM; Cytotoxicity effect (µM) Epithelial liver HepG2 [4]: 1.34 ± 0.7 µM; Cytotoxicity effect (µM) Epithelial kidney NRK52E [5]: 0.20 ± 0.2 µM; Cytotoxicity effect (µM) T-lymphocyte H9 [6]: 0.53 ± 0.3 µM
4 | O=C(C1=C(O)C(=O)N(Cc2c[nH]c3ccccc23)C1c1ccc(Cl)cc1)c1ccc(Br)cc1 (stereo not shown) [Compound 39] | 24 ± 7 µM | 11 ± 4 µM | – | MIC (E. coli Neumann): > 100 µM; MIC [7]: > 100 µM; MIC (µM) A. baumanii ATCC15308 (A. baumannii ATCC15308): > 100 µM; MIC (S. pneumoniae): 25 µM (≈ 13 µg/mL); MIC (B. subtilis 168): > 100 µM; MIC (S. aureus 133): 25 µM (≈ 13 µg/mL); Cytotoxicity CCRF-CEM [3]: >100 µM; Cytotoxicity effect (µM) Epithelial liver HepG2 [4]: > 100 µM; Cytotoxicity effect (µM) Epithelial kidney NRK52E [5]: > 100 µM; Cytotoxicity effect (µM) T-lymphocyte H9 [6]: > 100 µM
5 | COc1ccc(C(=O)C2=C(O)C(=O)N(CCc3c(C)[nH]c4ccccc34)C2c2ccc(Cl)cc2)cc1 (stereo not shown) [Compound 6] | 63 ± 4 µM | 9 ± 6 µM | 92 ± 7% | –
6 | COc1ccc(C2=C(O)C(=O)N(c3nc(SCc4ccccc4)n[nH]3)C2c2ccccc2F)cc1 (stereo not shown) [Compound 7] | 65 ± 19 µM | 58 ± 21 µM | 62% | –
7 | CCCCCCOc1cccc(N2C(=O)C(O)=C(C(=O)c3ccccc3)C2c2ccc(C(C)C)cc2)c1 (stereo not shown) [Compound 2] | 4 ± 6 µM | 17 ± 9 µM | 101 ± 0.4% | –
8 | COc1ccc(N2C(=O)C(O)=C(C(=O)c3ccc4c(c3)OCO4)C2c2ccc(Br)cc2)cc1 (stereo not shown) [Compound 5] | 61 ± 1 µM | 69 ± 13 µM | – | –
9 | CCOC(=O)c1ccc(N2C(=O)C(O)=C(S(=O)(=O)c3ccccc3)C2c2ccc(C(C)C)cc2)cc1 (stereo not shown) [Compound 4] | 24 ± 20 µM | > 100 µM | 101% | IC50 Determination with PaPBP3, FP-Bocillin FL Assay [2]: failed to inhibit Bocillin FL binding
10 | CSc1ccc(C2c3c(oc4cc(C)cc(C)c4c3=O)C(=O)N2CC2CCCO2)cc1 (stereo not shown) [Compound 9] | 99 ± 1 µM | 18 ± 3 µM | 60% | –
